# Data taken from patent US20260234165A1, “MACROCYCLIC COMPOUNDS, PREPARATION METHOD THEREFOR, AND USE THEREOF” (GENFLEET THERAPEUTICS (SHANGHAI) INC., priority 2004, published 2026).
# Like-named read-outs stand apart in the source and are kept apart here.
# Legend:
# [1] = test system: p-ERK in NCI-H441 cells (KRAS G12V mutation); assay: Cell p-ERK assay (HTRF) in NCI-H441 cells; type: cell-based, human; conditions: NCI-H441 cells, 3 h compound incubation, HTRF p-ERK T202/Y204, read-out: H441 p-ERK IC50
# In short: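 AsPC-1 (10000/well) or NCI-H441 (20000/well) cells were seeded in RPMI-1640 with 10% FBS, grown overnight, then exposed to 3.16-fold compound dilutions (0.1% DMSO) for 3 h at 37 °C. Lysates were read for phospho-ERK T202/Y204 by HTRF; IC50 came from four-parameter fits of inhibition versus DMSO and blank wells.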
# [2] = test system: p-ERK in AsPC-1 cells (KRAS G12D mutation); assay: Cell p-ERK assay (HTRF) in AsPC-1 cells; type: cell-based, human; conditions: AsPC-1 cells, 3 h compound incubation, HTRF p-ERK T202/Y204, read-out: AsPC-1 p-ERK IC50
# Protocol: AsPC-1 cells were purchased from ATCC, Cat. No. CRL-1682: NCI-H441 cells were purchased from ATCC, Cat. No. HTB-174: RPMI-1640 medium was purchased from Gibco, Cat. No. I1875-093: FBS was purchased from Gibco, Cat. No. 10099-141C: penicillin/streptomycin double-antibiotic solution (PS) was purchased from Gibco, Cat. No. 15140-122: trypsin (containing EDTA) was purchased from Gibco, Cat. No. 25200-072; DMSO was purchased from VWRAMRESCO, Cat. No. 0231-500ML; 96-well cell culture plates were purchased from Corning, Cat. No. 3599: white-bottomed, opaque 96-well plates were purchased from Cisbio, Cat. No. 66PL96025; Advance ERK phospho-T202/Y204 kit was purchased from Cisbio, Cat. No. 64AERPEH; cell counter was purchased from CHEMOMETEC, model: NC-200; microplate reader was purchased from PerkinElmer, model: EnVision.
# AsPC-1, a human pancreatic cancer cell strain endogenously containing a KRAS^G12D mutation, was cultured in a complete medium containing RPMI-1640+10% FBS+1% PS. NCI-H441, a human non-small cell lung cancer cell strain endogenously containing a KRAS^G12V mutation, was cultured in a complete medium containing RPMI-1640+10% FBS+1% PS.
# The cells were digested with trypsin (containing EDTA), collected in their corresponding complete media, and counted. The density of the cell suspensions was adjusted with their corresponding complete media, and 10000 AsPC-1 cells or 20000 NCI-H441 cells per well were seeded into a 96-well cell culture plate, with the volume of the medium in each well being 80 μL.
# The cell culture plate was incubated in an incubator at 37° C. with 5% CO2 overnight. A series of 3.16-fold gradient dilutions of a 1000- compound stock solution were prepared with DMSO, and then diluted 200-fold with the complete medium described above to give 5′ compound stock solutions. On the day after cell seeding, 20 μL of the 5× compound stock solution was added to each cell culture well. As a result, the final concentration of the compound in the cell culture well became 1×, and the DMSO content in the well was 0.1%. In addition to the compound-treated wells described above, cell-containing DMSO control wells were also set. A complete medium containing 0.5% DMSO was added at 20 μL/well. After the mixture was well mixed, the culture plate was incubated in the incubator at 37° C. with 5% CO2 for another 3 h. The medium was then removed from the culture wells, and 50 μL of cell lysis buffer (from Advance ERK phospho-T202,Y204 kit) was added to each well. The mixture was well mixed and incubated for 30 min. Then, 16 μL of the mixture was transferred to a white-bottomed, opaque 96-well assay plate, and separately, 16 μL of cell lysis buffer was added to additional wells (serving as blank wells) in the assay plate. After the transfer was completed, 4 μL of p-ERK HTRF antibody mixture (from Advance ERK phospho-T202/Y204 kit) was added to each well of the assay plate, followed by a 4-hour incubation. The HTRF signal values (RLU) were then measured using a microplate reader, and the inhibition rate of the compound against p-ERK levels was calculated as follows: IR (%)=(RLUDMSO−RLUcompound)/(RLUDMSO−RLUblank)×100%, where RLUDMSO is the average HTRF signal value from the DMSO control well samples, RLUblank is the average HTRF signal value from the blank well samples, and RLUcompound is the HTRF signal value from the compound-treated well samples. Using an XLfit software, the IR (%) values were plotted against the logarithm of the compound concentrations, and the dose-response curves were fitted using the four-parameter method to calculate the IC50 values.
Structure (SMILES),IC50 [1],IC50 [2],"IC50 ([1]; Homo sapiens, NCI-H441, 3 h)","IC50 ([2]; Homo sapiens, ASPC1, 3 h)"
"CCn1c(-c2cc(OCCN3CCS(=O)(=O)CC3)cnc2[C@H](C)OC)c2c3cc(ccc31)-c1csc(n1)C[C@H](NC(=O)[C@H]1[C@H](C)[C@@H]1C)C(=O)N1CCC[C@H](N1)C(=O)OCC(C)(C)C2 (atropisomer, axis not shown; (Sa)) [Compound Z470, (1r,2R,3S)—N-((6^3S,4S,Z)—(Sa)-1^2-(5-(2-(1,1-dioxidothiomorpholino)ethoxy)-2-((S)-1-methoxyethyl)pyridin-3-yl)-1^1-ethyl-10,10-dimethyl-5,7-dioxo-6^1,6^2,6^3,6^4,6^5,6^6-hexahydro-1^1H-8-oxa-2(4,2)-thiazola-1(5,3)-indola-6(1,3)-pyridazinacycloundecaphane-4-yl)-2,3-dimethylcyclopropane-1-carboxamide]",69.4 nM,35.3 nM,–,–
"C=C1CCN2CCN(c3cnc([C@H](C)OC)c(-c4c5c6cc(ccc6n4CC)-c4csc(n4)C[C@H](NC(=O)[C@H]4[C@H](C)[C@@H]4C)C(=O)N4CCC[C@H](N4)C(=O)OCC(C)(C)C5)c3)C[C@H]2C1 (atropisomer, axis not shown; (Sa)) [Compound Z549, (1r,2R,3S)—N-((6^3S,4S,Z)-1^1-ethyl-(Sa)-1^2-(2-((S)-1-methoxyethyl)-5-((R)-8-methyleneoctahydro-2H-pyrido[1,2-a]pyrazin-2-yl)pyridin-3-yl)-10,10-dimethyl-5,7-dioxo-6^1,6^2,6^3,6^4,6^5,6^6-hexahydro-1′H-8-oxa-2(4,2)-thiazola-1(5,3)-indola-6(1,3)-pyridazinacycloundecaphane-4-yl)-2,3-dimethylcyclopropane-1-carboxamide]",26.7 nM,32.6 nM,–,–
"CCn1c(-c2cc(OCCN3CCOCC34CC4)cnc2[C@H](C)OC)c2c3cc(ccc31)-c1csc(n1)C[C@H](NC(=O)C1[C@@H](C)[C@H]1C)C(=O)N1CCC[C@H](N1)C(=O)OCC1(CC1)C2 (stereo partly drawn) [Compound Z385, (1r,2R,3S)—N-((3′S,4′S,Z)-2′-(5-(2-(7-oxa-4-azaspiro[2,5]octan-4-yl)ethoxy)-2-((S)-1-methoxyethyl)pyridin-3-yl)-1-ethyl-5′,7′-dioxospiro[cyclopropane-1,10′-8-oxa-2(4,2)-thiazola-1(5,3)-indola-6(1,3)-pyridazinacycloundecaphan]-4′-yl)-2,3-dimethylcyclopropane-1-carboxamide]",–,–,20.7 nM,33.5 nM
"CCn1c(-c2cc(C#CC(=O)N3CCCOCC3)cnc2[C@H](C)OC)c2c3cc(ccc31)-c1csc(n1)C[C@H](NC(=O)[C@H]1[C@H](C)[C@@H]1C)C(=O)N1CCC[C@H](N1)C(=O)OCC(C)(C)C2 [Compound Z810A, (1r,2R,3S)—N-((6^3S,4S,Z)-1^2-ethyl-1^2-(5-(3-(1,4-oxazepan-4-yl)-3-oxoprop-1-yn-1-yl)-2-((S)-1-methoxyethyl)pyridin-3-yl)-10,10-dimethyl-5,7-dioxo-6^1,6^2,6^3,6^4,6^5,6^6hexahydro-1^1H-8-oxa-2(4,2)-thiazola-1(5,3)-indola-6(1,3)-pyridazinacycloundecaphane-4-yl)-2,3-dimethylcyclopropane-1-carboxamide]",0.63 nM,–,–,1.22 nM
"CCn1c(-c2cc(C#CCN3CCC3)cnc2[C@H](C)OC)c2c3cc(ccc31)-c1csc(n1)C[C@H](NC(=O)CC1CC1)C(=O)N1CCC[C@H](N1)C(=O)OCC(C)(C)C2 [Compound Z999, N-((6^3S,4S,Z)-1^2-(5-(3-(azetidin-1-yl)prop-1-yn-1-yl)-2-((S)-1-methoxyethyl)pyridin-3-yl)-1^1-ethyl-10,10-dimethyl-5,7-dioxo-6^1,6^2,6^3,6^4,6^5,6^6-hexahydro-1^1H-8-oxa-2(4,2)-thiazola-1(5,3)-indola-6(1,3)-pyridazinacycloundecaphane-4-yl)-2-cyclopropylacetamide]",–,–,2.16 nM,3.57 nM
